Test results published in patent US20220241429A1, “Antifolate-Carrying Nanoparticles and Their Use in Medicine” (priority 2018, published 2022).

Experiments:
Hep3B cells = assay: Cytotoxic or cytostatic activity on Hep3B cells; type: cell-based; settings: Homo sapiens, Incubation time 72 hours, concentration range 40 pM to 500 μM
Procedure: (§1) The cytotoxic or cytostatic activity of methotrexate, the linker-modified methotrexate, MTX-(EG)3-NH2 and of MTX-(EG)3-NH2-loaded gold nanoparticles (GNPs) ([MTX-(EG)3-NHC(O)-(EG)8][alpha-Gall][COOH-(EG)8]@Au) was assessed by treatment of Hep3B and U87MG cells. Incubation time was 72 hours and the concentration range was 40 pM to 500 μM. The results are expressed as IC50 and are as follows: […]

U87MG cells = assay: Cytotoxic or cytostatic activity on U87MG cells; type: cell-based; settings: Homo sapiens, U-87 MG; Incubation time 72 hours, concentration range 40 pM to 500 μM
Procedure: as §1

| SMILES | IC50 (Hep3B cells) [µM] | IC50 (U87MG cells) [µM] |
| --- | --- | --- |
| CN(Cc1cnc2nc(N)nc(N)c2n1)c1ccc(C(=O)NC(CCC(=O)NCCCOCCOCCOCCCN)C(=O)O)cc1 (stereo not shown) [MTX-(EG)3-NH2, 4-[(3-{2-[2-(3-aminopropoxy)ethoxy]ethoxy}propyl)carbamoyl]-2-[(4-{[(2,4-diaminopteridin-6-yl)methyl](methyl)amino}phenyl)formamido]butanoic acid] | 0.001 to 1 | 1 to 1000 |
| CN(Cc1cnc2nc(N)nc(N)c2n1)c1ccc(C(=O)N[C@@H](CCC(=O)O)C(=O)O)cc1 [MTX, Methotrexate] | 0.001 to 1 | 0.001 to 1 |
